From the METLIN SMRT retention time set (Domingo-Almenara et al. 2019)

Assay: gradient 5% acetonitrile 3 min, to 50% in 2 min, to 85% in 15 min, held 3 min, 100 µL/min
Conditions: column: Zorbax Extend-C18 2.1 x 50 mm; eluents: water / acetonitrile, 0.1% formic acid
Outline: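 Pure standards were analyzed in mixtures of ~100 molecules using HPLC coupled to a quadrupole time-of-flight mass spectrometer, in both positive and negative ionization mode. Separation used a Zorbax Extend-C18 column (2.1 × 50 mm, 1.8 μm) at 100 μL/min, with water and acetonitrile each containing 0.1% formic acid. Dead and dwell volumes were 40 μL and 900 μL, and data were collected over 3 months. Retention time was read from computationally picked adduct peaks, each inspected manually.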

RP-LC retention time | Compound
921 s | CC(C)c1cccc(NC(=O)C2CCN(C(=O)c3ncn4c3COC(c3ccccc3)C4)CC2)c1 (centres undefined)
1030 s | Cc1ccccc1-c1noc(Cn2c(=O)n(-c3cccc(F)c3)c(=O)c3sccc32)n1
776 s | Cc1cccc(N(C)C(=O)C2CCCN2S(=O)(=O)c2cc3c(cc2C)NC(=O)CO3)c1 (centres undefined)
1060 s | O=C(COc1ccccc1-c1nc(-c2ccccc2Cl)no1)NCc1ccco1
638 s | COC(=O)c1ccc(C(=O)OC)c(=O)[nH]1
644 s | O=C(NC1CCCC1)C1CCN(S(=O)(=O)c2cc(C(=O)N3CCCC3)cs2)CC1
594 s | Cc1noc(C)c1S(=O)(=O)N1CC(N(C)Cc2cccnc2)C1
688 s | COc1ccc(OC)c(CNC(=O)Cc2nnc(-c3ccc4ncccc4c3)o2)c1
694 s | O=C(c1cnccn1)N1CCC2(CC1)CC(OCC1CC1)CCO2 (centres undefined)
948 s | CCOC(=O)c1noc2ncnc(N3CCc4ccccc43)c12
723 s | O=C(C1CCN(c2cnc3nccnc3c2)CC1)N1CCN(c2ccc(F)cc2)CC1
696 s | CCCNC(=O)c1cc(-c2ccncc2)cn1Cc1ccc(C)cc1
967 s | COc1ccc(N2CCN(c3cc(SCC(=O)Nc4ccc(OC)c(Cl)c4)ncn3)CC2)cc1
1160 s | COc1ccc(-n2c(=O)c(C(=O)NCC(C)C)c(O)c3cccnc32)cc1
730 s | CCCn1c(C)cnc1CC1CCN(S(=O)(=O)c2ccc3c(c2)CCC3)C1 (centres undefined)
814 s | Cn1cc(S(=O)(=O)Nc2ccc(F)cc2Cl)c2cccnc21
913 s | COC(=O)C1=CN(c2cccc(Br)c2)c2ccc(F)cc2S1(=O)=O
963 s | CCOc1ccccc1-c1noc(CN2C(=O)COc3ccccc32)n1
722 s | Cn1cc(S(=O)(=O)N2CCC(C(=O)NCc3ccc(F)cc3)CC2)cc1C(=O)N1CCCC1
733 s | O=C(NC(c1ccccc1)c1nnc(N2CCOCC2)o1)c1ccccc1F (centres undefined)
1140 s | CC(C)Oc1ccc(-c2noc(Cn3c(=O)n(C(C)C)c(=O)c4ccccc43)n2)cc1
789 s | CC(C)(C)CCN1CCC(F)(c2nc(-c3ccccc3)no2)CC1
706 s | CCCNC(=O)c1cn(-c2cc(-c3nc(C)no3)ccn2)cn1
723 s | O=C(Nc1cccc(-c2ccc(N3CCOCC3)nn2)c1)Nc1ccc(F)cc1F

RP-LC retention time | Compound
746 s | O=C(Cc1nnc(-c2cccc(F)c2)o1)NC1CCCC1
675 s | Cc1cccc(NC(=O)Cn2nc3n(c2=O)CCCCC3)c1C
655 s | COc1ccc(NC(=O)Cc2nnc(-c3ccc4ncccc4c3)o2)cc1OC
556 s | COCCO[C@H]1C(=O)N(C2CCN(S(=O)(=O)c3cn(C)cn3)CC2)[C@H]1c1ccncc1
590 s | CN1C(=O)[C@H]2CN(Cc3ccc(F)c(F)c3)C[C@H]2C1=O
902 s | Cc1ccc(N2CCC(NC(=O)Nc3ccc(C)c(C)c3)C2=O)cc1 (centres undefined)
919 s | Cc1nc(-c2cc(S(=O)(=O)N3CCC(C(=O)N4CCCCCC4)CC3)c(C)s2)no1
822 s | CCn1ccc2sc(C)c(C(=O)NCc3cccc(F)c3)c2c1=O
769 s | CC1=C(c2ccc(C(C)C)cc2)S(=O)(=O)N=C1N1CCC(NC(=O)c2ccoc2)CC1
833 s | CCN1C(=O)c2cccnc2Sc2cc(NC(=O)c3ccccc3C)ccc21
912 s | Cc1ccc(NC(=O)Nc2cccn3nc(C4CC4)nc23)cc1
693 s | Cc1cccc(NC(=O)Cn2cnc3nc(N4CCC(C(=O)NC5CC5)CC4)sc3c2=O)c1C
597 s | COc1cc(OC)c(OC)cc1CN1CC[C@]2(CO)CN(Cc3ccccc3)C[C@@H]2C1
952 s | CC1(C(=O)NC2CCCCCCC2)CN(S(C)(=O)=O)CC(=O)N1c1ccc(Cl)cc1 (centres undefined)
663 s | CCOC(=O)N1CCC(NC(=O)CCc2cc3cc(OC)ccc3[nH]c2=O)CC1
878 s | O=C(NC1CC1)C1CCN(S(=O)(=O)c2cc(-c3noc(C4CCC4)n3)cs2)CC1
861 s | CCCn1cc(S(=O)(=O)Nc2cccc(F)c2C)c2cccnc21
884 s | CCc1noc(NC(C)=O)c1-c1ccc(C)c(S(=O)(=O)Nc2cc(C)ccc2OC)c1
637 s | Cc1ccc(S(=O)(=O)CCc2noc(C(=O)NCCCN3CCC(C)CC3)n2)cc1
722 s | O=C(c1ccc(S(=O)(=O)c2cccc(Cl)c2)c([N+](=O)[O-])c1)N1CCN(c2ccccn2)CC1
904 s | COCCc1noc(C2Cc3ccccc3N2C(=O)NCc2ccc(OC)cc2)n1 (centres undefined)
603 s | CC(C)C(=O)N1CCC(N2C[C@H](O)C[C@H]2C(=O)NC2CCCCC2)CC1
886 s | Cc1ccc(C)c(N2CCN(c3ccnc(SCC(=O)NC4CCCC4)n3)CC2)c1

The next lines start with the compound.

Compound | RP-LC retention time
CCc1ccc(-c2cn3ccn(-c4ccc(F)cc4)c(=O)c3n2)cc1 | 900 s
CC(C)n1c(=O)n(CC(=O)N2CCCc3ccccc32)c2cc(S(=O)(=O)N3CCCC3)ccc21 | 947 s
CC(C(=O)Nc1ccccc1C(F)(F)F)N1C(=O)c2ccccc2S1(=O)=O (centres undefined) | 828 s
CCOc1ccc(-c2nnc(SCC(=O)N3c4ccccc4CC3C)o2)cc1 (centres undefined) | 1110 s
CCc1nc2cc(-c3noc(-c4ccc(F)c(F)c4)n3)ccc2o1 | 1200 s
CCc1noc(-c2ccc(SCC(=O)N3CCCCCC3)nc2)n1 | 939 s
O=C(Nc1nc(-c2nc3ccccc3s2)cs1)c1c(F)cccc1F | 920 s
Cc1ccc(C)c(C(=O)N2CCCC(c3nc(CNC(=O)C4CCC4)cs3)C2)c1 (centres undefined) | 748 s
O=C(Nc1ccc2c(c1)OCO2)c1noc2c1CCCC2 | 883 s
COc1ccc(Cl)cc1S(=O)(=O)N1CCC(C(=O)NCc2ccccn2)CC1 | 594 s
CN(C)c1ccc(C(=O)Nc2cnc(N3CCCC3)nc2)cc1 | 702 s
CCOC(=O)c1noc2ncnc(NC3CCCc4ccccc43)c12 (centres undefined) | 1120 s
CC1CCCCN1Cc1nc(Cn2ccn3nc(-c4ccccc4)cc3c2=O)no1 (centres undefined) | 658 s
Cc1ccc2c(c1)N(S(C)(=O)=O)CCC(C(=O)NC(C)c1ccccc1)O2 (centres undefined) | 900 s
CCCCCNC(=O)C1CCN(c2ccc(Sc3cc(C)ccc3C)nn2)CC1 | 930 s
CC1=C(c2ccccc2)S(=O)(=O)N=C1N1CCC(NC(=O)NCC(C)C)CC1 | 790 s
CC(NC(=O)Nc1ccc(Br)cc1)C(=O)N1CCc2ccccc21 (centres undefined) | 941 s
COc1cccc(Cn2ccc3ccn(CCN(C)C)c3c2=O)c1 | 639 s
CCCS(=O)(=O)NCc1ccc2c(c1)CCN2C(=O)CC(C)C | 862 s
Cc1ccc(NC(=O)N(C)CC2CCOCC2)cc1F | 748 s
CCc1ccc(-c2cc3c(=O)n(CC(O)c4ccccc4OC)ccn3n2)cc1 (centres undefined) | 790 s

Compound | RP-LC retention time
CC(C)CN1CCN(C(=O)CN2CCN(Cc3ccc(F)cc3)C2=O)CC1 | 602 s
OC[C@H]1O[C@@H](n2cnc3c(NC4CCCC4)nc(Cl)nc32)[C@@H](O)C1O (some centres undefined) | 713 s
CCc1nn2c(CNC(=O)c3ccc(C)c(F)c3)c(-c3ccccc3)nc2s1 | 985 s
Cn1c(=O)c(=O)n(C)c2cc(N3CCCCC3)c(NC(=O)C3CCCCC3)cc21 | 940 s
O=C(c1ccc(-c2cccs2)nc1)N1CCOCC1 | 678 s
COc1ccc(-c2noc(C3CCCN3C(=O)Nc3ccc(C)cc3C)n2)cc1 (centres undefined) | 925 s
CSc1cccc(NC(=O)N2CCC(C)(C(=O)NCc3ccc(C)cc3)CC2)c1 | 917 s
CCN(CC)C(=O)N1CCC2(CC1)C(OC)C(=O)N2c1cccc(F)c1 (centres undefined) | 937 s
CCOc1ccccc1NC(=O)N1CCCC(C)(C(=O)NCc2ccc(F)cc2)C1 (centres undefined) | 983 s
Cc1nc2cccnc2n1CCN1CCN(C(=O)Nc2ccc(F)cc2)CC1 | 584 s
Cc1noc(-c2cccc(OC3CN(C(=O)c4ccco4)C3)c2)n1 | 789 s
CCc1ccc(S(=O)(=O)Nc2cc(-c3cn4ccc(C)cc4n3)ccc2C)cc1 | 745 s
O=C(NCc1ccc(F)cc1Cl)C1CCN(c2cc(Oc3ccccc3)ncn2)CC1 | 863 s
Cc1ccc(C(=O)Nc2ccc(N3CCN(Cc4ccccc4)C3=O)nc2)s1 | 847 s
Cc1nc(-c2ccc(N3CCN(C(=O)c4ccoc4)CC3)nc2)sc1C | 738 s
Cc1ccc(OCc2nc(C3CN(C(=O)C4(c5ccccc5)CC4)C3)no2)cc1 | 1030 s
O=C(NCCc1c[nH]c2ccccc12)C(=O)Nc1ccc2c(c1)OCCO2 | 825 s
Cn1nnc2c(N3CCN(C(=O)C(C)(C)Oc4ccc(Cl)cc4)CC3)ncnc21 | 850 s
C=CCNC(=O)C1CCCN(C(=O)Nc2ccc(NC(=O)Nc3ccc(C)cc3C)cc2)C1 (centres undefined) | 760 s
CCOC(=O)C1CCN(C(=O)Cc2c(C(=O)O)c(C)cn2CC)CC1 | 715 s
O=C(Nc1ccc(N2CCCN(C(=O)C3CC3)CC2)cc1)c1cc(-c2ccc(F)cc2)n[nH]1 | 730 s
